In PubChem BioAssay (NCI):
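Values below derive from 48-hour exposures of cells grown in 96-well plates, with endpoints linearly interpolated between the two concentrations bracketing the appropriate inhibition level. GI50 marks 50% less growth. TGI: total growth inhibition.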

Key:
Assay in all cases: NCI tumour cell line growth inhibition, 48 h
OVCAR-5 ovarian = tested on: OVCAR-5 ovarian
UACC-257 melanoma = tested on: UACC-257 melanoma
MALME-3M melanoma = tested on: MALME-3M melanoma
HCT-116 colon = tested on: HCT-116 colon
COLO 205 colon = tested on: COLO 205 colon
786-0 renal = tested on: 786-0 renal
UO-31 renal = tested on: UO-31 renal
HOP-92 NSCLC = tested on: HOP-92 NSCLC
SF-268 CNS = tested on: SF-268 CNS
IGROV1 ovarian = tested on: IGROV1 ovarian

SMILES	TGI (OVCAR-5 ovarian) [µM]	TGI (UACC-257 melanoma) [µM]	TGI (MALME-3M melanoma) [µM]	TGI (HCT-116 colon) [µM]	TGI (COLO 205 colon) [µM]	TGI (786-0 renal) [µM]	TGI (UO-31 renal) [µM]	TGI (HOP-92 NSCLC) [µM]	TGI (SF-268 CNS) [µM]	TGI (IGROV1 ovarian) [µM]	GI50 (UACC-257 melanoma) [µM]	GI50 (IGROV1 ovarian) [µM]	GI50 (MALME-3M melanoma) [µM]	GI50 (HCT-116 colon) [µM]	GI50 (COLO 205 colon) [µM]	GI50 (UO-31 renal) [µM]	GI50 (HOP-92 NSCLC) [µM]	GI50 (SF-268 CNS) [µM]	GI50 (OVCAR-5 ovarian) [µM]
COc1ccc(-c2ccc(C(=O)C=P(c3ccccc3)(c3ccccc3)c3ccccc3)cc2)cc1	44.8	45.2	43.9	32.3	13.9	37.5	13	34	71.4										
O=[N+]([O-])c1ccc(-n2nc3ccc4nonc4c3n2)cc1	> 100	> 100	89.2	> 100	> 100	89.4	62.9	65	> 100	> 100									
C=C(NC(=O)C(=C)NC(=O)c1ccc2c(n1)-c1coc(n1)C(=C)NC(=O)C(=C)NC(=O)c1nc(oc1C)C(=C)NC(=O)C(C(C)(C)O)NC(=O)C(=C)NC(=O)c1coc(n1)/C(=C/C)NC(=O)[C@H]([C@@H](C)O)NC(=O)c1csc-2n1)C(N)=O (some centres not stated)	> 87.5	> 87.5	> 87.5	> 87.5	> 87.5	> 87.5	> 87.5	> 87.5	> 87.5	> 87.5									
C=CCC(O[Si](C)(C)C(C)(C)C)c1cc(O[Si](C)(C)C(C)(C)C)ccc1OC (configuration not stated)	> 100	> 100	> 100	> 100	> 100		> 100	86.6	> 100	> 100									
O=P1(N(CCCl)CCCl)Oc2ccc(Cl)cc2C(C(Cl)(Cl)Cl)c2cc(Cl)ccc2O1 (configuration not stated)	> 100	> 100		15.9	26.5	30.7	> 100	40.4	> 100										
COC1/C=C/C(C)C(O)CC(O)/C=C/C(C)C(C(C)C(OC)C(C)CCC(=O)C(C)C(C/C=C/N(C)C=O)OC)OC(=O)/C=C/C=C(\C)CC(OC)CC2=CC(=O)O[C@@H](C(C)C(OC)C1)[C@H]2O (some centres not stated)	0.228	0.169		0.00952	0.0885		0.0648	0.0106	0.137	0.0689									
O=c1[nH]c(=O)n(COC(CO)CO)cc1-c1ccccc1	> 100	> 100	> 100	> 100	> 100	> 100	> 100	> 100	> 100	> 100									
COC(=O)[C@]1(c2cc3ccccc3n2S(=O)(=O)c2ccccc2)CC2CN(C(=O)OCc3ccccc3)C1C1OC(C)(C)OC21 (some centres not stated)	> 100	> 100	> 100	> 100	> 100	> 100	> 100	> 100		> 100									
CCC1(O)CC(CCN(Cc2ccccc2)C(=O)OCc2ccccc2)C(OCc2ccccc2)C1O (configuration not stated)	41.2	34.7		48.8	34.2	39.3	33.7			37.4									
Nc1[nH]c(=O)nc2c1ncn2C1OC(CO)C(O)C1O (configuration not stated)	> 100	> 100	> 100	> 100	> 100	> 100	> 100	> 100	> 100	> 100									
CCCCCC[C@H]([C@H](C)O)n1cnc2c(N)ncnc21	> 100	> 100	> 100	> 100	> 100	> 100	> 100	> 100	> 100	> 100									
Cc1ccccc1NC(=O)O/N=C(\Cl)C(C)C	40.5	28.7	5.73	4.79	3.29	3.45	31.3	4.08	45.1	27.6									
CCOC(=O)NC(=S)N(CC(=O)c1cc(OC)c(OC)c(OC)c1)c1ccc(Cl)cc1		> 100	> 100	> 100	> 100		> 100	> 100	> 100	> 100	25.1	70.1	> 100	72.3	> 100	48.9	38.9	> 100	
Nc1c(C(=O)c2ccc(Cl)c(Cl)c2)[nH]c(NCc2ccccc2)c1C(=S)Nc1ccccc1	28.2	30.5	11.7	12.6	3.79	27.9	21.6		31.5	26.5									
CC1=C(CO)C(=O)OC(C(C)C2CCC3C4CC5OC56C(O)C(N5CC5)=CC(=O)C6(C)C4CCC23C)C1 (configuration not stated)	31.2	24.4	25.1	12.2		17.8	25.7	19.3	15.5	14.4									
C[s+]1c2ccccc2c2ccccc21	> 100		> 100	> 100	> 100	> 100	> 100		> 100	> 100									
O=C1c2cc3c(cc2-c2c1c1cc(F)c(F)cc1c(=O)n2CCCn1ccnc1)OCO3	> 100	0.65	1.21	10.8	1.62		0.814		> 100	> 100	0.0969	0.14	0.0856	< 0.01	0.0293	0.0465		< 0.01	0.0832
CCOc1ccc2nc(NC(=O)C(=O)C(C(=O)c3ccccc3F)C3OC(=O)c4ccccc43)sc2c1 (configuration not stated)		> 100		31.8	30.4		33.6		82	83.2									
C/C(=C1\N=C(c2ccccc2)OC1=O)c1ccccc1	> 100	> 100	> 100	> 100	> 100		> 100	> 100	> 100	> 100									
O=C(O)c1c(CC(Cc2ccc3c(c2)CCC3)C(=O)O)ccc2c1CCC2 (configuration not stated)	> 100	> 100	> 100	> 100	> 100	> 100	> 100	> 100		> 100									
